Laboratory results: ChEMBL document CHEMBL1255450, “Detection of E119V and E119I mutations in influenza A (H3N2) viruses isolated from an immunocompromised patient: challenges in diagnosis of oseltamivir resistance” (Antimicrob Agents Chemother, 2010)

Key:
Assay type in all cases: functional, organism-based, Influenza A virus (A/Texas/12/2007(H3N2))
Settings in all cases: mdck
Influenza A virus [1] = tested on: Influenza A virus
Influenza A virus [2] = tested on: Influenza A virus; remark: listed apart in the source
Influenza A virus [3] = tested on: Influenza A virus; remark: listed apart in the source
Influenza A virus [4] = tested on: Influenza A virus; remark: listed apart in the source
Influenza A virus [5] = tested on: Influenza A virus; remark: listed apart in the source
Influenza A virus [6] = tested on: Influenza A virus; remark: listed apart in the source
Influenza A virus [7] = tested on: Influenza A virus; remark: listed apart in the source

SMILES | IC50 (Influenza A virus [1]; read-out: IC50) | IC50 (Influenza A virus [2]) | IC50 (Influenza A virus [3]) | IC50 (Influenza A virus [4]) | IC50 (Influenza A virus [5]) | IC50 (Influenza A virus [6]) | IC50 (Influenza A virus [1]) | IC50 (Influenza A virus [7])
C/C=C\[C@@H]1C[C@H](C(=O)O)N[C@H]1[C@@H](NC(C)=O)[C@](C)(CCC)OC | 3 nM | 23.9 nM | 4.96 nM | 1.25 nM | 5.45 nM | 1.35 nM |  | 
CC(=O)N[C@H]1[C@H]([C@H](O)[C@H](O)CO)OC(C(=O)O)=C[C@@H]1NC(=N)N [ZANAMIVIR] | 3.8 nM | 18.6 nM | 12.7 nM |  |  | 1.54 nM |  | 
CCOC(=O)C1=C[C@@H](OC(CC)CC)[C@H](NC(C)=O)[C@@H](N)C1 [OSELTAMIVIR] |  | 431 nM | 33.2 nM | 5.49 nM | 246 nM | 8.06 nM | 154 nM | 9.18 nM
CCC(CC)[C@H](NC(C)=O)[C@@H]1[C@H](O)[C@@H](C(=O)O)C[C@H]1NC(=N)N [PERAMIVIR ANHYDROUS] | 33.6 nM | 214 nM | 0.9 nM | 0.43 nM | 1.47 nM | 0.51 nM |  | 
